Source: article PMC9605737, “Identification of 6ω-cyclohexyl-2-(phenylamino carbonylmethylthio)pyrimidin-4(3H)-ones targeting the ZIKV NS5 RNA dependent RNA polymerase” (Frontiers in Chemistry, 2022)

Experiments:
[1] = tested on: ZIKV; assay: Plaque assay, anti-ZIKV activity in Vero cells; assay type: cell-based, Zika virus
Protocol: Initially, the novel acetylarylamine-S-DACOs 4a-z were tested for their cytotoxicity and anti-ZIKV activity in Vero cells by plaque formation according to previously detailed procedure ([Xu et al., 2017]).
Vero cells were inoculated in a 12-well plate at 3 × 10^5 cells/ml and cultured overnight, the medium was discarded and cells were washed with PBS, then the ZIKV (MOI = 0.5) was added to infect at 37°C for 2 h. The cells were washed with PBS, and then a mixture of DMEM supplemented with 4% FBS and 2% low-melting agarose (Amresco, United States) was overlaid on the cells. Next, the cells were fixed with 4% paraformaldehyde for 15 min at 5d post-infection (hpi), washed twice with PBS and stained with 0.8% crystal violet for 10 min. Finally, an enzyme-linked fluorescence spot spectrometer (CTL, United States) was used for image acquisition.
The data and graphs were processed using GraphPad Prism8 software, expressed as mean ± standard deviation (Mean ± SD), comparison between groups using ANOVA, p < 0.05 was considered statistically significant.

[2] = biological target: T1, ZIKV RdRp (Zika virus, UniProt A0A024B7W1); assay: In vitro ZIKV RdRp activity assay (Syto9 fluorescence); assay type: biochemical; conditions: purified ZIKV RdRp domain, poly-U/ATP, 30°C 60 min; read-out: EC50, inhibition of ZIKV RdRp activity
T1 construct: we expressed and purified ZIKV RdRp domain; made in house; host or cells: Escherichia coli BL21 (DE3)
Source text: Through molecular docking experiments and cell thermal shift analysis, we supose that 4w may have a direct interaction with ZIKV RdRp. In order to verify whether the binding of 4w and NS5 protein is directly related to ZIKV RdRp, we expressed and purified ZIKV RdRp domain, and detected its activity according to the method described in the literature ([Qian et al., 2022]) (Figure 6A). […] Heparin is a protein chelating agent. […] Heparin was selected as the positive control drug in this experiment, and the syto9-only group was used as the negative control, the same volume of DMSO as a positive control.
The ZIKV RdRp was expressed and purified, and the protein expression and purification method was as described before ([Xu et al., 2017]; [Sáez-Álvarez et al., 2019]). 4w was diluted with protein dialysis buffer to 1,500 nM and stored for later use. In vitro RdRp polymerase activity assay was described previously ([Qian et al., 2022]), 1,500 ng of purified RdRp protein, gradient diluted 4w and positive control drug 5 μM, 2 mg/ml Poly-U, 20mM ATP, 1M Tris-HCl, 100 mg/ml BSA, 100mM MnCl2 was added to a 96-well PCR plate. After mixing, the reaction was performed at 30°C in the dark for 60 min. […] RdRp protein activity was detected on a real-time fluorescence quantitative PCR instrument.

[3] = tested on: ZIKV RNA; assay: qRT-PCR viral load in supernatant of ZIKV-infected Huh7 cells; assay type: cell-based; conditions: Zika virus, Huh-7, read-out: EC50, inhibition of ZIKV RNA replication
Source text: In order to re-verify the inhibitory effect of 4w on ZIKV at the molecular level, we used ZIKV to infect cell lines of different origins (A549, Vero, Huh7 cells) and then treated with 4w in a concentration gradient. The change of viral load in the supernatant of cells after treatment was detected by qRT-PCR method.
Cells were infected with ZIKV SZ-WIV01 and then treated with 4w. The viral load in the supernatant was detected by Quantitative real-time polymerase chain reaction (qRT-PCR) at in different time periods after infection. Then the RNA from culture supernatant was extracted using the EasyPure ® Viral DNA/RNA Kit (TransGen Biotech, China) following the manufacturer’s instructions. Intracellular RNA extraction was according to trizol method. A one-step qRT-PCR kit RNA-direct™ Realtime PCR Master Mix (TOYOBO, Japan) and TaqMan probe were used to quantify the viral RNA produced. The primers (NS5 ZIKV 1086F: 5′-CCGCTGCCCAACACAAG-3′ and NS5 ZIKV 1086R: 3′-[…] C-5′) and probe (5′-FAM-[…]-TAMRA -3′) were used for amplification of the ZIKV NS5 region. A standard curve of the serial dilutions was used to quantify the viral RNA yield.
The 50% effective concentration (EC50) and 50% cytotoxic concentration (CC50) of the compound were calculated according to the Reed and Muench method, inhibition rate of ZIKV RNA yield- [(1-drug treatment/positive control) × 100]. […]

[4] = tested on: ZIKV E protein; assay: Western blot of ZIKV E protein in infected Vero cells; assay type: cell-based, Zika virus; conditions: 12.5 μM, 48 h
Source text: (§1) ZIKV E protein is one of the most important structural proteins of ZIKV, which plays an important role in the correct assembly of the virus and evasion of the host’s innate immunity ([Jaimipuk et al., 2022]). We have verified that 4w has a significant inhibitory effect on ZIKV-infected cell lines from different sources at the molecular level, but it is unknown whether it has the same antiviral effect at the protein level. Therefore, in order to explore the inhibitory effect of 4w on ZIKV protein level, we added serially diluted 4w to ZIKV-infected Vero cells for 48 h, collected the total protein for WB experiments, and then detected the effect of 4w on ZIKV E and NS5 protein. At the same time, the inhibitory effect of 4w on ZIKV E protein was verified again by immunofluorescence experiment.
(§2) Vero cells were infected with ZIKV (MOI = 1) at 37°C for 2 h. Next, the different amounts of 4w were added to continue culturing for 48 h to extract the total protein in the cells. The total protein was separated in sodium dodecyl sulfate polyacrylamide gel electrophoresis (SDS-PAGE). […] The antibody signal was recorded and quantified using the Tanon-5200 Multi Imaging System.

[5] = tested on: ZIKV NS5 protein; assay: Western blot of ZIKV NS5 protein in infected Vero cells; assay type: cell-based; conditions: 12.5 μM, 48 h
Source text: as §1, §2

[6] = tested on: ZIKV E protein; assay: Immunofluorescence assay of ZIKV E protein in infected Vero cells; assay type: cell-based, Zika virus; conditions: 25 μM, 72 h
Source text: as §1
Vero cells were seeded at 2 × 10^5 cells/ml in a 24-well plate with cell slides, and 500 μl/well was cultured overnight in a 37°C, 5% CO2 incubator. ZIKV (MOI = 1) was added to infect at 37°C for 2 h, and then discarded the virus. The cells were washed twice with PBS and then added to 500 μl of 4w diluted in concentration gradients. At the same time, virus-only as a positive control and a medium-only as negative control were set. […] Microscopic examinations were performed on a Leica DMI4000B Microsystem (Wetzlar, Germany), and an image was recorded using the system.

[7] = Figure 3; ref Shen (2015); cited from earlier work

T1 sequence (A0A024B7W1 2793-3423): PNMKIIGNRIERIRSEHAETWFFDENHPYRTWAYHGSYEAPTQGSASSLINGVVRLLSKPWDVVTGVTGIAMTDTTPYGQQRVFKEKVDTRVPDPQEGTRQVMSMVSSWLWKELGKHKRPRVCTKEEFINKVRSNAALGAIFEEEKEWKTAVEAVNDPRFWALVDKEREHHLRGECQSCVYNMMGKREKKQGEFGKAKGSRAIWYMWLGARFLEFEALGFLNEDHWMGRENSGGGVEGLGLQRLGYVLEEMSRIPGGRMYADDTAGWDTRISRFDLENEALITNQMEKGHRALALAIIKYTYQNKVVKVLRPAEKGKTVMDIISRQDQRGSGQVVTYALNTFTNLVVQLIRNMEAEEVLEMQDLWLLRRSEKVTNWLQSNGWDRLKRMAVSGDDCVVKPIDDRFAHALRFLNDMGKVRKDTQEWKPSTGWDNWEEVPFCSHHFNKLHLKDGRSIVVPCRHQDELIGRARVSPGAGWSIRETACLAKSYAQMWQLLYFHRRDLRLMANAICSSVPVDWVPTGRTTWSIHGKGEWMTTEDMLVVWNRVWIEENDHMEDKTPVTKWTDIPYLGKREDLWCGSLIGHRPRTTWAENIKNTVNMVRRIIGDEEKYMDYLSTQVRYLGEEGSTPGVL

## CCc1c(C2CCCCC2)nc(SCC(=O)Nc2cc(F)cc(F)c2)[nH]c1=O [Compound 4w, 2-{[4-cyclohexyl-5-ethyl-6-oxo-1,6-dihydropyrimidin-2-yl]thio}-N-(3,5-difluorophenyl)acetamide]
[1]
  SI (selectivity index, CC50/EC50 ratio): >26
[1]; Zika virus, plaque assay, independently in triplicate, read-out: EC50 (anti-ZIKV activity, plaque formation)
  EC50: 7.65 ± 0.31 µM
[2]
  EC50: 11.4 ± 0.51 µM
[3]
  EC50: 6.76 ± 0.52 µM
[4]
  inhibition of ZIKV E protein expression (WB): significantly inhibit
[5]
  inhibition of ZIKV NS5 protein expression (WB): significantly inhibit
[6]
  inhibition of ZIKV E protein expression (immunofluorescence): completely inhibited
[7]
  CC50: > 10 µM
